Among the data in BindingDB's records for doi:10.1006/jmbi.2000.4032 (Cnrs, 2000) are Kd values, retold here.

Experiment [1] concerns the target T1, Retinoic acid receptor alpha [200-419] (Homo sapiens, UniProt P10276).
T1 construct: 200-419
T1 sequence (P10276 whole entry): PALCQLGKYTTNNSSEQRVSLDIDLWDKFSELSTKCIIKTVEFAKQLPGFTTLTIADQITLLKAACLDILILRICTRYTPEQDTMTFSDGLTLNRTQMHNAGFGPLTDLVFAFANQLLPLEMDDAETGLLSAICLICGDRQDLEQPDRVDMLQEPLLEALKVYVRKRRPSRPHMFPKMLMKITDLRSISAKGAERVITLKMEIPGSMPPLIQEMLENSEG
Briefly: Retinoid Competition Binding Assay. Particulars: pH 7.9; 4 °C.

In experiment [2] the target is T2, Retinoic acid receptor beta [200-419] (Homo sapiens, UniProt P10826).
T2 construct: 200-419
T2 sequence (P10826 whole entry): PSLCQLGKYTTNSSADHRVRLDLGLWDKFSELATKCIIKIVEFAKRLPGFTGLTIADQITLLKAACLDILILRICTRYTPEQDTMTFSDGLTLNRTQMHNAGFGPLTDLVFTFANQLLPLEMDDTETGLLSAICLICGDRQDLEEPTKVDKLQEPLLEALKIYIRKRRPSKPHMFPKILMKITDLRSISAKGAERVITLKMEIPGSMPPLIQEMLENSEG
Briefly: Retinoid Competition Binding Assay. Particulars: pH 7.9; 4 °C.

On to `CC1(C)CCC(C)(C)c2cc(C(=O)/C=C/c3ccc(C(=O)O)cc3)ccc21` [Ch 80], for which the figures for the Kd in experiment [1] and in experiment [2] were 0.4 nM and 3.5 nM, respectively.

As usually defined, the Kd is the equilibrium constant for the complex coming apart. The low end stands for tighter binding, the high end for weaker binding.
